Data as given in US20180362598A1 (priority 2016, published 2018).

System: insect gut protease (X condition)
Format: biochemical

| Substance | % of Max Slope X |
| --- | --- |
| IFVALKGS | 69% |
| LFVALKGS | 92% |
| LFVRLRGS | 94% |
| LKLFVGS | 98% |
| LRLFVGS | 74% |
